Experimental findings from ChEMBL document CHEMBL4261640, “Potent Antiglioblastoma Agents by Hybridizing the Onium-Alkyloxy-Stilbene Based Structures of an α7-nAChR, α9-nAChR Antagonist and of a Pro-Oxidant Mitocan” (J Med Chem, 2018) are described below.

Activity calls are given as the source filed them. The calls are words filed in the database; no cut-off is given here.

The Ki is a measure of affinity in units of concentration, obtained from inhibition or displacement. One may read the IC50 as the concentration at which inhibition is half-maximal.

Series [1] addresses T1, Neuronal acetylcholine receptor subunit alpha-7 (Homo sapiens, UniProt P36544). Briefly: Displacement of [125I]-alpha-bungarotoxin from human alpha7 nAChR expressed in human SH-SY5Y cell membranes after 30 mins by gamma counting analysis. Background: Displacement assays read how much labelled ligand stays bound in the presence of the test substance.
Series [2] has as its system U-87 MG. Briefly: Induction of ROS production in human U87MG cells at 500 nM after 1 hr by MitoSOX Red mitochondrial superoxide indicator based FACS analysis relative to antimycin A. In kind it is functional, U-87MG ATCC. On the technique in general: A flow cytometer gives signals particle by particle.
For series [3], the system named is U-87 MG. Briefly: Cytotoxicity against human U87MG cells assessed as decrease in ATP production at 0.1 uM after 72 hrs by luciferin-luciferase-based luminescent assay. The class given is functional, cell-based. To be noted: U-87MG ATCC.
Series [4] deals with U-87 MG. Kind of series: Cytotoxicity against human U87MG cells assessed as decrease in ATP production at 0.1 uM after 1 hr by luciferin-luciferase-based luminescent assay. The class given is functional, cell-based. The note with it: U-87MG ATCC.
In series [5] the test system is U-87 MG. Kind of series: Reduction in mitochondrial membrane potential in human U87MG cells after 72 hr by TMRM-staining based assay. The note with it: U-87MG ATCC.
In series [6] the test system is U-87 MG. Briefly: Induction of ROS production in human U87MG cells after 1 hr by MitoSOX Red mitochondrial superoxide indicator based FACS analysis. The note with it: U-87MG ATCC. In kind it is functional, cell-based.
The test system of the next series is Astrocyte. Kind of series: Cytotoxicity against mouse astrocytes assessed as reduction in cell viability after 72 hrs by MTS assay.
The subject of series [7] is U-87 MG. Briefly: Reduction in mitochondrial membrane potential in human U87MG cells after 72 hrs by TMRM-staining based assay. The class given is functional, cell-based. The note with it: U-87MG ATCC.
The test system of a further series is SH-SY5Y. Briefly: Antiproliferative activity against human SH-SY5Y cells after 72 hrs by MTS assay. (In general: Formazan colour is commonly taken as a measure of viable cells.)
Series [8] has as its system U-87 MG. Kind of series: cells. To be noted: Homo sapiens, 72 h.
Description: Antiproliferative activity against human U87MG cells after 72 hrs by MTS assay
The subject of another series is A549. Briefly: cells. The note with it: Homo sapiens, A549, 72 h.
Series [9] concerns U-87 MG. Kind of series: Cytotoxicity against human U87MG cells assessed as decrease in ATP production at 1 uM after 1 hr by luciferin-luciferase-based luminescent assay. In kind it is functional, cell-based. To be noted: U-87MG ATCC.
In series [10] the target is Neuronal acetylcholine receptor; alpha9/alpha10 (Homo sapiens, UniProt Q9GZZ6+Q9UGM1). Briefly: Antagonist activity at human alpha9alpha10 nACHR expressed in xenopous laevis oocyte assessed as inhibition of ACh-induced channel current after 5 mins at -70 mV holding potential by two electrode voltage clamp method.
Neuronal acetylcholine receptor; alpha9/alpha10, sequence (Q9UGM1 whole entry): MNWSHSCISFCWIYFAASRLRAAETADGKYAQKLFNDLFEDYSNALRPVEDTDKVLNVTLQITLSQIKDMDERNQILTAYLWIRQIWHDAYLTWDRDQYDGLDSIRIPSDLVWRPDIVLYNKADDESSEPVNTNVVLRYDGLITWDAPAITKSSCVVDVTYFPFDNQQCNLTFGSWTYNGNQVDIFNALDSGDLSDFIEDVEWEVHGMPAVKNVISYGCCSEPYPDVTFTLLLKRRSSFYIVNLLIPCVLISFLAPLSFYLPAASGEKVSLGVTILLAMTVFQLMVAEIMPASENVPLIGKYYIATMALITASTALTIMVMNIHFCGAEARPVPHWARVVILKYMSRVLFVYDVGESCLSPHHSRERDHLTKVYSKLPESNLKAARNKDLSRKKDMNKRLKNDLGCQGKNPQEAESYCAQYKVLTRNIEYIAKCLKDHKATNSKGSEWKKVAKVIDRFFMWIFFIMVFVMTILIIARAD
Neuronal acetylcholine receptor; alpha9/alpha10, sequence (Q9GZZ6 whole entry): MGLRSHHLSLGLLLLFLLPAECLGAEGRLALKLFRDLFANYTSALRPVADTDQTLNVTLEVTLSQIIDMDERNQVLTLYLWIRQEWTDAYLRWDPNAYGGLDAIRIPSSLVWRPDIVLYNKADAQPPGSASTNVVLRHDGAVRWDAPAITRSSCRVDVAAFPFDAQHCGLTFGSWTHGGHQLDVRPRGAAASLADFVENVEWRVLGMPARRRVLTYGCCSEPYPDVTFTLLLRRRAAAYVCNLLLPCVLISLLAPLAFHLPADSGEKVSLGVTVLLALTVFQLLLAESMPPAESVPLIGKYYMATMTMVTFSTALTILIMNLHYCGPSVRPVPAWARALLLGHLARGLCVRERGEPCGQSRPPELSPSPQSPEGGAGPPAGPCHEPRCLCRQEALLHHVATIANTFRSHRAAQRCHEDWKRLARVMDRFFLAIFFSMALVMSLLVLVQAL
The target in series [11] is T1, Neuronal acetylcholine receptor subunit alpha-7. Briefly: Antagonist activity at human alpha7 nACHR expressed in xenopous laevis oocyte assessed as inhibition of ACh-induced channel current after 5 mins at -70 mV holding potential by two electrode voltage clamp method.
Series [12] concerns U-87 MG. Kind of series: Cytotoxicity against human U87MG cells assessed as decrease in ATP production at 1 uM after 72 hrs by luciferin-luciferase-based luminescent assay. In kind it is functional, cell-based. To be noted: U-87MG ATCC.
Series [13] is described as follows: Drug uptake in human HepG2 cells assessed as relative fluorescence unit at 50 uM after 24 hrs by fluorescent plate reader based assay. The note with it: hepg2, 24 h. In kind it is ADME, cell-based.
Series [14] can be described thus: Drug uptake in human HepG2 cells assessed as relative fluorescence unit at 1 uM after 6 hrs by fluorescent plate reader based assay. The note with it: hepg2, 6 h. The class given is ADME, cell-based.
Series [15] in a line: Drug uptake in human HepG2 cells by fluorescent plate reader based assay. The class given is ADME, cell-based.
Series [16] can be described thus: Drug uptake in human HepG2 cells assessed as relative fluorescence unit at 1 uM after 24 hrs by fluorescent plate reader based assay. The class given is ADME, cell-based. To be noted: hepg2, 24 h.
The nature of series [17]: Drug uptake in human HepG2 cells assessed as relative fluorescence unit at 10 uM after 6 hrs by fluorescent plate reader based assay. In kind it is ADME, cell-based. The note with it: hepg2, 6 h.
The test system of series [18] is U-87 MG. Briefly: Cytotoxicity against human U87MG cells assessed as decrease in ATP production at 4 uM after 72 hrs by luciferin-luciferase-based luminescent assay. In kind it is functional, cell-based. The note with it: U-87MG ATCC.
Series [19] is described as follows: Drug uptake in human HepG2 cells assessed as relative fluorescence unit at 50 uM after 6 hrs by fluorescent plate reader based assay. In kind it is ADME, cell-based. The note with it: hepg2, 6 h.
Series [20] is described as follows: Drug metabolism in human HepG2 cells assessed as loss of styrene moiety at 100 uM incubated for 24 hrs by MS/MS analysis. The class given is ADME, cell-based. The note with it: hepg2, 24 h.
Series [21] can be described thus: Drug uptake in human HepG2 cells assessed as relative fluorescence unit at 100 uM after 6 hrs by fluorescent plate reader based assay. The class given is ADME, cell-based. The note with it: hepg2, 6 h.
Series [22] is described as follows: Drug uptake in human HepG2 cells assessed as relative fluorescence unit at 10 uM after 24 hrs by fluorescent plate reader based assay. The class given is ADME, cell-based. To be noted: hepg2, 24 h.
Series [23] in a line: Drug uptake in human HepG2 cells assessed as relative fluorescence unit at 100 uM after 24 hrs by fluorescent plate reader based assay. To be noted: hepg2, 24 h. In kind it is ADME, cell-based.
Series [24] in a line: Drug uptake in human HepG2 cells assessed as relative fluorescence unit at 1 uM after 1 hr to 24 hrs by fluorescent plate reader based assay. The class given is ADME, cell-based. To be noted: hepg2, 1 µM.
The test system of series [25] is U-87 MG. Briefly: Cytotoxicity against human U87MG cells assessed as decrease in ATP production at 2 uM after 1 hr by luciferin-luciferase-based luminescent assay. In kind it is functional, cell-based. The note with it: U-87MG ATCC.
The subject of series [26] is U-87 MG. Briefly: Cytotoxicity against human U87MG cells assessed as decrease in ATP production at 2 uM after 72 hrs by luciferin-luciferase-based luminescent assay. In kind it is functional, cell-based. The note with it: U-87MG ATCC.

T1 sequence (P36544 whole entry): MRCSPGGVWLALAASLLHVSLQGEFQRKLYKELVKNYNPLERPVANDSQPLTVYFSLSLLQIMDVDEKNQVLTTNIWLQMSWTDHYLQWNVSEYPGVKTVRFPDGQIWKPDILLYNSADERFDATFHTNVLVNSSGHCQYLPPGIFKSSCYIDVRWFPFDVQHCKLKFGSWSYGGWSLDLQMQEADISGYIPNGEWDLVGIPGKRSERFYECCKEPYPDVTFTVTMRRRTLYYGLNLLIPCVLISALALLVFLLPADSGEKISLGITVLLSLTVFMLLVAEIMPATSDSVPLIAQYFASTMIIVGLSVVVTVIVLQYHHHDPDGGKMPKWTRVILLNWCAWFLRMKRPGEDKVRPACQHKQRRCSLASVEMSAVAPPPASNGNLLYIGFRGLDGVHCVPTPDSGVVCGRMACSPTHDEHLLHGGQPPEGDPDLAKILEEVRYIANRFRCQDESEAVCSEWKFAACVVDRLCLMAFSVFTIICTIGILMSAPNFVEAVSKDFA
Description for A549: Antiproliferative activity against human A549 cells after 72 hrs by MTS assay

Regarding `C(=C\c1ccc(OCCCCCCCCCC[P+](c2ccccc2)(c2ccccc2)c2ccccc2)cc1)/c1ccccc1.[I-]`, affinity in [1] was put at a Ki of 1.93 µM. Besides, the Activity in the series with U-87 MG [2] is 58.2%; with U-87 MG [6], “Dose-dependent effect”. Besides, the outcome in the series with U-87 MG [3], in the series with U-87 MG [4], with U-87 MG [5] and in the series on U-87 MG [7] was Active. Also, the IC50 with Astrocyte is 0.6 µM; with SH-SY5Y, 0.21 µM; with U-87 MG [8], 0.06 µM; with A549, 0.1 µM.

Compound `COc1cc(/C=C/c2ccc(OCCCC[P+](c3ccccc3)(c3ccccc3)c3ccccc3)cc2)cc(OC)c1.[I-]` displayed a Ki in [1] of 1.83 µM. The values for the Activity in the series on U-87 MG [2] and in the series on U-87 MG [6] were 16.3% and “Dose-dependent effect”, respectively. Moreover, the result in the series with U-87 MG [9], in the series with U-87 MG [5], in the series on U-87 MG [7] and in the series with U-87 MG [12] was Active. Also, the concentration for half-maximal inhibition (IC50) in series [10] is more than 10 µM; in series [11], more than 10 µM; in the series on Astrocyte, 1 µM; in the series with SH-SY5Y, 0.55 µM; with U-87 MG [8] it was 0.86 µM; in the series on A549, 0.26 µM.

`C(=C\c1ccc(OCCC[P+](c2ccccc2)(c2ccccc2)c2ccccc2)cc1)/c1ccccc1.[I-]` returned an inhibitory constant (Ki) in series [1] of 0.984 µM. The compound further had an Activity with U-87 MG [2] of 21%. The IC50 with U-87 MG [8] stood at 1.4 µM; in the series on A549 it was 1.8 µM.

`CC[N+](CC)(CC)CCOc1ccc(/C=C/c2ccccc2)cc1.[I-]` [STILONIUM IODIDE]: the Drug uptake is 9.13 RFU in series [13]; 4.75 RFU in series [14]; “Dose-dependent effect and Tde” in series [15]; 5.42 RFU in series [16]; 6.82 RFU in series [17]; 7.67 RFU in series [19]. In addition, the results for the Drug uptake in series [21], in [22] and in series [23] were 9.43 RFU, 7.18 RFU and 14.35 RFU, respectively. In addition, the outcome in the series on U-87 MG [5], with U-87 MG [18] and in the series with U-87 MG [7] was Active. For the same compound, the Drug metabolism result in [20] is recorded as “Metabolite_Detected”.

Compound `C(=C\c1ccc(OCCCCCCC[P+](c2ccccc2)(c2ccccc2)c2ccccc2)cc1)/c1ccccc1.[I-]` gave an inhibition constant (Ki) in [1] of 0.617 µM. Further, in the series with U-87 MG [2], the Activity was 39.5%. Besides, the values for the IC50 in the series on U-87 MG [8] and in the series with A549 were 0.36 µM and 0.12 µM, respectively.

In [1], `C(=C\c1ccc(OCCCCC[P+](c2ccccc2)(c2ccccc2)c2ccccc2)cc1)/c1ccccc1.[I-]` showed a Ki of 2.8 µM. In the series with U-87 MG [2], this compound had an Activity of 20%. For the same compound, the IC50 stood at 0.67 µM in the series on U-87 MG [8] and 0.32 µM in the series with A549.

`C(=C\c1ccc(OCCCCCCCCC[P+](c2ccccc2)(c2ccccc2)c2ccccc2)cc1)/c1ccccc1.[I-]` registered a Ki in series [1] of 1.29 µM. Moreover, the Activity in the series with U-87 MG [2] is 56.3%. Moreover, the IC50 turned out to be 0.09 µM in the series with U-87 MG [8] and 0.11 µM in the series with A549.

`C(=C\c1ccc(OCCCCCCCC[P+](c2ccccc2)(c2ccccc2)c2ccccc2)cc1)/c1ccccc1.[I-]` displayed a Ki in series [1] of 0.909 µM. This compound had an Activity with U-87 MG [2] of 46.3%. Moreover, in series [24], the Drug uptake entry is given as “Active”. Further, the IC50 came to 0.07 µM in the series on U-87 MG [8] and 0.26 µM in the series with A549.

Take `CC[N+](CC)(CC)CCCCCCCCOc1ccc(/C=C/c2ccccc2)cc1.[I-]`: in [1], the affinity corresponds to a Ki of 0.164 µM. The Drug uptake entry in series [24] is on record as “Active”. The IC50 in series [11] amounted to 0.092 µM.

Take `CC[N+](CC)(CC)CCOc1ccc(/C=C/c2cc(OC)cc(OC)c2)cc1`: the outcome in the series on U-87 MG [5], in the series with U-87 MG [18] and in the series with U-87 MG [7] was Active. Further, the IC50 in series [10] was 0.0172 µM; in the series with Astrocyte, 23 µM; with SH-SY5Y, more than 100 µM; with U-87 MG [8], 5.3 µM; with A549, 12 µM. In addition, the result in the series on U-87 MG [6] was inactive.

Turning to `CC[N+](CC)(CC)CCCCCCOc1ccc(/C=C/c2ccccc2)cc1`, the affinity in series [1], expressed as Ki, was 0.465 µM. For the same compound, the IC50 in series [11] was determined as 0.0123 µM.

For `CC[N+](CC)(CC)CCCCOc1ccc(/C=C/c2cc(OC)cc(OC)c2)cc1`, the affinity in series [1] corresponds to a Ki of 0.305 µM. For the same compound, the IC50 in series [11] was found to be 0.0243 µM.

In series [1], `C(=C\c1ccc(OCCCC[P+](c2ccccc2)(c2ccccc2)c2ccccc2)cc1)/c1ccccc1.[I-]` had a Ki of 1.64 µM. The Activity was 1.5% with U-87 MG [2] and “Dose-dependent effect” in the series with U-87 MG [6]. Further, the result in the series with U-87 MG [25], in the series with U-87 MG [5], in the series with U-87 MG [7] and in the series with U-87 MG [26] was Active. The IC50 came to 0.4 µM with Astrocyte, 3 µM with SH-SY5Y, 0.64 µM in the series on U-87 MG [8] and 0.42 µM in the series with A549.

In turn, `CC[N+](CC)(CC)CCCCOc1ccc(/C=C/c2ccccc2)cc1.[I-]` came in with a Ki in [1] of 0.186 µM. Besides, the Drug uptake result in series [24] is “Active”. In addition, in [11], the IC50 was 0.0065 µM.

As to `C(=C\c1ccc(OCCCCCC[P+](c2ccccc2)(c2ccccc2)c2ccccc2)cc1)/c1ccccc1.[I-]`, in series [1], the Ki is 0.559 µM. The same compound yielded an Activity with U-87 MG [2] of 27.3%. Also, the values for the IC50 with U-87 MG [8] and in the series on A549 were 0.38 µM and 0.15 µM, respectively.
